Test results as given in patent publication US20250250230A1, “HETEROCYCLIC COMPOUND” (TAKEDA PHARMACEUTICAL COMPANY LIMITED, priority 2022, published 2025).

target: T1, human orexin type 2 receptor (Homo sapiens, UniProt O43614); test: Measurement of orexin type 2 receptor agonist activity (calcium fluorescence, Fluo-4 AM, FDSS); type: cell-based; conditions: test compound 3 μM; CHO cells expressing human OX2 receptor; DMSO = 0%, orexin A (human) = 100%
T1 construct: expressed in transfected cells
T1 sequence (O43614 1-444): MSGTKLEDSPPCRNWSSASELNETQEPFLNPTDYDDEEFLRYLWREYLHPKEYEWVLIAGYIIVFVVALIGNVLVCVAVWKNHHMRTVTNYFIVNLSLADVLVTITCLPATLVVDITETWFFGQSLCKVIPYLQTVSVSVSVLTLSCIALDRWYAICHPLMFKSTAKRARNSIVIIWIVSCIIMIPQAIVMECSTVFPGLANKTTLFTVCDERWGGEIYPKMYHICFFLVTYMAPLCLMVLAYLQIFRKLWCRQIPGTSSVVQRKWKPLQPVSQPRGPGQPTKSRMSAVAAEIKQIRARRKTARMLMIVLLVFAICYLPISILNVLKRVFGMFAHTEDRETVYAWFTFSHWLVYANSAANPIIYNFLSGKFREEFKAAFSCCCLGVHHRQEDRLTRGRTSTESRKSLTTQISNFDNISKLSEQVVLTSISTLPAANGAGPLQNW
Method in brief: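 Agonist response scaled between vehicle (0%) and human orexin A at 10 nM final (100%), from 2-min kinetic Fluo-4 fluorescence reads. Stable hOX2R CHO-K1 clone, dye-loaded in HBSS/20 mM HEPES/0.1% BSA with 1.25 mM probenecid before compound addition.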

Row | Structure (SMILES) | OX2R agonist activity (3 μM, %)
1 | CCS(=O)(=O)NC(C)[C@@H]1CCN1C(=O)[C@@H]1C[C@@]1(F)c1ccccc1-c1c(F)cccc1F (stereo partly drawn) [Example 363, N-[(1R)-1-{(2S)-1-[(1S,2S)-2-(2′,6′-difluoro[1,1′-biphenyl]-2-yl)-2-fluorocyclopropane-1-carbonyl]azetidin-2-yl}ethyl]ethanesulfonamide, or N-[(1S)-1-{(2S)-1-[(1S,2S)-2-(2′,6′-difluoro[1,1′-biphenyl]-2-yl)-2-fluorocyclopropane-1-carbonyl]azetidin-2-yl}ethyl]ethanesulfonamide] | 98%
2 | C[C@H]1CN(C(=O)[C@@H]2C[C@@]2(F)c2ccccc2-c2c(F)cccc2F)C[C@@H](CNS(C)(=O)=O)O1 [Example 364, N-({(2S,6S)-4-[(1S,2S)-2-(2′,6′-difluoro[1,1′-biphenyl]-2-yl)-2-fluorocyclopropane-1-carbonyl]-6-methylmorpholin-2-yl}methyl)methanesulfonamide] | 88%
3 | CS(=O)(=O)NC[C@@H]1CCN1C(=O)C1(CO)CC1c1ccccc1-c1c(F)cccc1F (stereo partly drawn) [Example 365, N-({(2S)-1-[(1R,2S)-2-(2′,6′-difluoro[1,1′-biphenyl]-2-yl)-1-(hydroxymethyl)cyclopropane-1-carbonyl]azetidin-2-yl}methyl)methanesulfonamide, or N-({(2S)-1-[(1S,2R)-2-(2′,6′-difluoro[1,1′-biphenyl]-2-yl)-1-(hydroxymethyl)cyclopropane-1-carbonyl]azetidin-2-yl}methyl)methanesulfonamide] | 103%
4 | CS(=O)(=O)NC[C@@H]1CCN1C(=O)C1CC1c1c(-c2c(F)cccc2F)csc1F (stereo partly drawn) [Example 367, N-{[(2S)-1-{(1R,2R)-2-[4-(2,6-difluorophenyl)-2-fluorothiophen-3-yl]cyclopropane-1-carbonyl}azetidin-2-yl]methyl}methanesulfonamide, or N-{[(2S)-1-{(1S,2S)-2-[4-(2,6-difluorophenyl)-2-fluorothiophen-3-yl]cyclopropane-1-carbonyl}azetidin-2-yl]methyl}methanesulfonamide] | 93%
5 | CS(=O)(=O)N[C@H]1CCN(C(=O)C2CC2c2c(-c3c(F)cccc3F)csc2F)C1 (stereo partly drawn) [Example 368, N-[(3S)-1-{(1R,2R)-2-[4-(2,6-difluorophenyl)-2-fluorothiophen-3-yl]cyclopropane-1-carbonyl}pyrrolidin-3-yl]methanesulfonamide, or N-[(3S)-1-{(1S,2S)-2-[4-(2,6-difluorophenyl)-2-fluorothiophen-3-yl]cyclopropane-1-carbonyl}pyrrolidin-3-yl]methanesulfonamide] | 97%
6 | CS(=O)(=O)NC[C@H]1CCN1C(=O)[C@@H]1C[C@H]1c1ccccc1-c1c(F)cccc1F [Example 370, N-({(2R)-1-[(1R,2R)-2-(2′,6′-difluoro[1,1′-biphenyl]-2-yl)cyclopropane-1-carbonyl]azetidin-2-yl}methyl)methanesulfonamide] | 84%
7 | CS(=O)(=O)NC[C@H]1CCN1C(=O)[C@@H]1C[C@@]1(F)c1ccccc1-c1c(F)cccc1F [Example 371, N-({(2R)-1-[(1S,2S)-2-(2′,6′-difluoro[1,1′-biphenyl]-2-yl)-2-fluorocyclopropane-1-carbonyl]azetidin-2-yl}methyl)methanesulfonamide] | 103%
8 | C[C@@H]1CN(C(=O)[C@@H]2C[C@@]2(F)c2ccccc2-c2c(F)cccc2F)C[C@@H](CNS(C)(=O)=O)O1 [Example 372, N-({(2S,6R)-4-[(1S,2S)-2-(2′,6′-difluoro[1,1′-biphenyl]-2-yl)-2-fluorocyclopropane-1-carbonyl]-6-methylmorpholin-2-yl}methyl)methanesulfonamide] | 95%
9 | COCC1(NS(C)(=O)=O)CCN(C(=O)[C@@H]2C[C@@]2(F)c2ccccc2-c2c(F)cccc2F)C1 (stereo partly drawn) [Example 373, N-[(3R)-1-[(1S,2S)-2-(2′,6′-difluoro[1,1′-biphenyl]-2-yl)-2-fluorocyclopropane-1-carbonyl]-3-(methoxymethyl)pyrrolidin-3-yl]methanesulfonamide, or N-[(3S)-1-[(1S,2S)-2-(2′,6′-difluoro[1,1′-biphenyl]-2-yl)-2-fluorocyclopropane-1-carbonyl]-3-(methoxymethyl)pyrrolidin-3-yl]methanesulfonamide] | 95%
10 | CCS(=O)(=O)NC[C@@H]1[C@H](O)CN1C(=O)[C@@H]1C[C@@]1(F)c1ccccc1-c1c(F)cccc1F [Example 374, N-({(2R,3R)-1-[(1S,2S)-2-(2′,6′-difluoro[1,1′-biphenyl]-2-yl)-2-fluorocyclopropane-1-carbonyl]-3-hydroxyazetidin-2-yl}methyl)ethanesulfonamide] | 98%
11 | CC1(NS(C)(=O)=O)CN(C(=O)[C@@H]2C[C@@]2(F)c2ccccc2-c2c(F)cccc2F)CC1(F)F (stereo partly drawn) [Example 375, N-{(3R)-1-[(1S,2S)-2-(2′,6′-difluoro[1,1′-biphenyl]-2-yl)-2-fluorocyclopropane-1-carbonyl]-4,4-difluoro-3-methylpyrrolidin-3-yl}methanesulfonamide, or N-{(3S)-1-[(1S,2S)-2-(2′,6′-difluoro[1,1′-biphenyl]-2-yl)-2-fluorocyclopropane-1-carbonyl]-4,4-difluoro-3-methylpyrrolidin-3-yl}methanesulfonamide] | 92%
12 | CS(=O)(=O)NC1C2CN(C(=O)[C@@H]3C[C@@]3(F)c3ccccc3-c3c(F)cccc3F)CC2CC1(F)F (stereo partly drawn) [Example 377, N-{(3aR,4S,6aS)-2-[(1S,2S)-2-(2′,6′-difluoro[1,1′-biphenyl]-2-yl)-2-fluorocyclopropane-1-carbonyl]-5,5-difluorooctahydrocyclopenta[c]pyrrol-4-yl}methanesulfonamide, or N-{(3aS,4R,6aR)-2-[(1S,2S)-2-(2′,6′-difluoro[1,1′-biphenyl]-2-yl)-2-fluorocyclopropane-1-carbonyl]-5,5-difluorooctahydrocyclopenta[c]pyrrol-4-yl}methanesulfonamide] | 93%
13 | CS(=O)(=O)N[C@@H]1CN(C(=O)C2CC2c2c(-c3c(F)cccc3F)csc2F)CCC1(F)F (stereo partly drawn) [Example 378, N-[(3R)-1-{(1R,2R)-2-[4-(2,6-difluorophenyl)-2-fluorothiophen-3-yl]cyclopropane-1-carbonyl}-4,4-difluoropiperidin-3-yl]methanesulfonamide, or N-[(3R)-1-{(1S,2S)-2-[4-(2,6-difluorophenyl)-2-fluorothiophen-3-yl]cyclopropane-1-carbonyl}-4,4-difluoropiperidin-3-yl]methanesulfonamide] | 103%
14 | CCC(NS(C)(=O)=O)[C@@H]1CCN1C(=O)[C@@H]1C[C@@]1(F)c1ccccc1-c1c(F)cccc1F (stereo partly drawn) [Example 379, N-[(1R)-1-{(2S)-1-[(1S,2S)-2-(2′,6′-difluoro[1,1′-biphenyl]-2-yl)-2-fluorocyclopropane-1-carbonyl]azetidin-2-yl}propyl]methanesulfonamide, or N-[(1S)-1-{(2S)-1-[(1S,2S)-2-(2′,6′-difluoro[1,1′-biphenyl]-2-yl)-2-fluorocyclopropane-1-carbonyl]azetidin-2-yl}propyl]methanesulfonamide] | 86%
15 | CC[C@@H]1CN(C(=O)[C@@H]2C[C@@]2(F)c2ccccc2-c2c(F)cccc2F)[C@@H]1CNS(C)(=O)=O [Example 380, N-({(2S,3R)-1-[(1S,2S)-2-(2′,6′-difluoro[1,1′-biphenyl]-2-yl)-2-fluorocyclopropane-1-carbonyl]-3-ethylazetidin-2-yl}methyl)methanesulfonamide] | 92%
16 | CC[C@@H]1CN(C(=O)[C@@H]2C[C@@]2(F)c2ccccc2-c2c(F)cccc2F)[C@H]1CNS(C)(=O)=O [Example 381, N-({(2R,3R)-1-[(1S,2S)-2-(2′,6′-difluoro[1,1′-biphenyl]-2-yl)-2-fluorocyclopropane-1-carbonyl]-3-ethylazetidin-2-yl}methyl)methylsulfonamide] | 90%
17 | CCS(=O)(=O)NC[C@@H]1[C@@H](O)CN1C(=O)[C@@H]1C[C@@]1(F)c1ccccc1-c1c(F)cccc1F [Example 382, N-({(2R,3S)-1-[(1S,2S)-2-(2′,6′-difluoro[1,1′-biphenyl]-2-yl)-2-fluorocyclopropane-1-carbonyl]-3-hydroxyazetidin-2-yl}methyl)ethanesulfonamide] | 96%
18 | CO[C@@H]1CN(C(=O)[C@@H]2C[C@@]2(F)c2ccccc2-c2c(F)cccc2F)[C@@H]1CNS(C)(=O)=O [Example 383, N-({(2R,3R)-1-[(1S,2S)-2-(2′,6′-difluoro[1,1′-biphenyl]-2-yl)-2-fluorocyclopropane-1-carbonyl]-3-methoxyazetidin-2-yl}methyl)methanesulfonamide] | 72%
19 | CS(=O)(=O)NC[C@@H]1[C@H](CO)CN1C(=O)[C@@H]1C[C@@]1(F)c1ccccc1-c1c(F)cccc1F [Example 384, N-{[(2S,3R)-1-[(1S,2S)-2-(2′,6′-difluoro[1,1′-biphenyl]-2-yl)-2-fluorocyclopropane-1-carbonyl]-3-(hydroxymethyl)azetidin-2-yl]methyl}methanesulfonamide] | 99%
